Patent US20250320184A1 (SIRONAX LTD., priority 2022, published 2025)

These compounds were tested against T1, SARM1 (50-724) (Homo sapiens, UniProt Q6SZW1) (assay: biochemical).
T1 sequence (Q6SZW1 50-724): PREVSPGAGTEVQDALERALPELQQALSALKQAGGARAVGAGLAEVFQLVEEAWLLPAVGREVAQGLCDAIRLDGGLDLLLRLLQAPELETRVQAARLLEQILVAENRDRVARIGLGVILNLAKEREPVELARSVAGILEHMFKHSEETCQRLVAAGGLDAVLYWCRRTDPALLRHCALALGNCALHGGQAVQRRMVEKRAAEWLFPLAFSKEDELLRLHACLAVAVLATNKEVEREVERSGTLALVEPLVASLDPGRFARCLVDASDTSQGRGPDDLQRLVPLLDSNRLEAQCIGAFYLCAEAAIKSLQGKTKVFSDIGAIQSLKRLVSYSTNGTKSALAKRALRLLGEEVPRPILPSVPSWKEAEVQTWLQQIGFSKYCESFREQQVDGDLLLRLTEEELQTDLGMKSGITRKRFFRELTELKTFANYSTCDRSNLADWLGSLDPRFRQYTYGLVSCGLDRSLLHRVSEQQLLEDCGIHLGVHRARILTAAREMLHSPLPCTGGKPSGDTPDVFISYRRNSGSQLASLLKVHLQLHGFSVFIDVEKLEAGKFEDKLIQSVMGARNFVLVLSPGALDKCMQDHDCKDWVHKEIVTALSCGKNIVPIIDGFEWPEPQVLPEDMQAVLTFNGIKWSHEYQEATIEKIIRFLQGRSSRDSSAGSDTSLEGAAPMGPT
Method: An enzymatic assay was performed in a 384-well plate using Dulbecco's phosphate-buffered saline (PBS) as the reaction buffer. […] The reaction was initiated by adding a mixture of 200 μM nicotinamide mononucleotide (NMN) as activator and 100 μM NAD^+ as substrate. After 1 h of incubation at room temperature, the reaction was terminated with 10 times volume of 70% acetonitrile, then centrifuged at 3800 rpm for 10 min.

IC50 | SMILES
< 0.1 µM | Cc1n[nH]c(=O)c2cc(NC(C)c3nc(Cl)c(Cl)s3)ccc12 (racemic) [Example 223, 7-((1-(4,5-dichlorothiazol-2-yl)ethyl)amino)-4-methylphthalazin-1(2H)-one]
< 0.1 µM | CC1(C)C(=O)Nc2cc(NC(CO)c3c(Cl)ccc(F)c3Cl)ccc21 (racemic) [Example 238, 6-((1-(2,6-dichloro-3-fluorophenyl)-2-hydroxyethyl)amino)-3,3-dimethylindolin-2-one]
< 0.1 µM | CC(Nc1ccc2c(c1)NC(=O)C21CC1)c1nc(Cl)c(Cl)s1 (racemic) [Example 244, 6′-((1-(4,5-dichlorothiazol-2-yl)ethyl)amino)spiro[cyclopropane-1,3′-indolin]-2′-one]
< 0.1 µM | Cc1n[nH]c(=O)c2cc(NC(CO)c3c(Cl)ccc(F)c3Cl)ccc12 (racemic) [Example 250, 7-[[1-(2,6-dichloro-3-fluoro-phenyl)-2-hydroxy-ethyl]amino]-4-methyl-2H-phthalazin-1-one]
< 0.1 µM | CCC(Nc1ccc2c(Cl)n[nH]c(=O)c2c1)c1nc(Cl)c(Cl)s1 (racemic) [Example 254, 4-chloro-7-[1-(4,5-dichlorothiazol-2-yl)propylamino]-2H-phthalazin-1-one]
< 0.1 µM | CC1(C)C(=O)Nc2cc(NC(CCO)c3nc(Cl)c(Cl)s3)ccc21 (racemic) [Example 292, 6-((1-(4,5-dichlorothiazol-2-yl)-3-hydroxypropyl)amino)-3,3-dimethylindolin-2-one]
< 0.1 µM | Cc1n[nH]c(=O)c2cc(NC(CCO)c3nc(Cl)c(Cl)s3)ccc12 (racemic) [Example 294]
< 0.1 µM | CC(Nc1cc(F)c2ncn(-c3ccn[nH]3)c(=O)c2c1)c1nc(Cl)c(Cl)s1 (racemic) [Example 356rac, 6-((1-(4,5-dichlorothiazol-2-yl)ethyl)amino)-8-fluoro-3-(1H-pyrazol-5-yl)quinazolin-4(3H)-one]
< 0.1 µM | CC(Nc1cc(F)c2ncn(-c3nc[nH]n3)c(=O)c2c1)c1nc(Cl)c(Cl)s1 (racemic) [Example 359, 6-((1-(4,5-dichlorothiazol-2-yl)ethyl)amino)-8-fluoro-3-(1H-1,2,4-triazol-3-yl)quinazolin-4(3H)-one]
< 0.1 µM | CC(Nc1cc(F)c2ncn(-c3nncs3)c(=O)c2c1)c1nc(Cl)c(Cl)s1 (racemic) [Example 369, 6-((1-(4,5-dichlorothiazol-2-yl)ethyl)amino)-8-fluoro-3-(1,3,4-thiadiazol-2-yl)quinazolin-4(3H)-one]
< 0.1 µM | CC(Nc1cc(F)c2ncn(-c3n[nH]cc3Cl)c(=O)c2c1)c1nc(Cl)c(Cl)s1 (racemic) [Example 370, 3-(4-chloro-1H-pyrazol-3-yl)-6-((1-(4,5-dichlorothiazol-2-yl)ethyl)amino)-8-fluoroquinazolin-4(3H)-one]
< 0.1 µM | Cc1cn[nH]c1-n1cnc2c(F)cc(NC(C)c3nc(Cl)c(Cl)s3)cc2c1=O (racemic) [Example 371, 6-((1-(4,5-dichlorothiazol-2-yl)ethyl)amino)-8-fluoro-3-(4-methyl-1H-pyrazol-5-yl)quinazolin-4(3H)-one]
< 0.1 µM | CC(Nc1cc(F)c2ncn(-c3cnn[nH]3)c(=O)c2c1)c1nc(Cl)c(Cl)s1 (racemic) [Example 372, 6-((1-(4,5-dichlorothiazol-2-yl)ethyl)amino)-8-fluoro-3-(1H-1,2,3-triazol-5-yl)quinazolin-4(3H)-one]
< 0.1 µM | CC(Nc1cc(F)c2ncn(-c3ncnn3C)c(=O)c2c1)c1nc(Cl)c(Cl)s1 (racemic) [Example 373, 6-((1-(4,5-dichlorothiazol-2-yl)ethyl)amino)-8-fluoro-3-(1-methyl-1H-1,2,4-triazol-5-yl)quinazolin-4(3H)-one]
< 0.1 µM | CC(Nc1cc(F)c2ncn(-c3ncc[nH]3)c(=O)c2c1)c1nc(Cl)c(Cl)s1 (racemic) [Example 375, 6-((1-(4,5-dichlorothiazol-2-yl)ethyl)amino)-8-fluoro-3-(1H-imidazol-2-yl)quinazolin-4(3H)-one]
> 1 µM | Cc1c(Cl)c(C(C)Nc2ccc3cc[nH]c(=O)c3c2)nn1C (single isomer, unassigned) [Compound 226A]
< 0.1 µM | Cc1c(Cl)c(C(C)Nc2ccc3cc[nH]c(=O)c3c2)nn1C (single isomer, unassigned) [Compound 226B]
> 1 µM | C[C@H](Nc1ccc2c(c1)NC(=O)C2(C)C)c1nc(Cl)c(Cl)s1 (single isomer, unassigned) [Compound 234A]
< 0.1 µM | C[C@@H](Nc1ccc2c(c1)NC(=O)C2(C)C)c1nc(Cl)c(Cl)s1 (single isomer, unassigned) [Compound 234]
0.1 to 0.5 µM | CCC(C(N)=O)c1ccc(NS(=O)(=O)c2cccc(Cl)c2Cl)cc1 (single isomer, unassigned) [Compound 270A]
< 0.1 µM | CCC(C(N)=O)c1ccc(NS(=O)(=O)c2cccc(Cl)c2Cl)cc1 (single isomer, unassigned) [Compound 270]
> 1 µM | CC[C@H](C(N)=O)c1ccc(N[C@H](C)c2nc(Cl)c(Cl)s2)cc1 (single isomer, unassigned) [Compound 302A]
> 1 µM | CC[C@@H](C(N)=O)c1ccc(N[C@H](C)c2nc(Cl)c(Cl)s2)cc1 (single isomer, unassigned) [Compound 302B]
0.1 to 0.5 µM | CC[C@@H](C(N)=O)c1ccc(N[C@@H](C)c2nc(Cl)c(Cl)s2)cc1 (single isomer, unassigned) [Compound 302C]

IC50 | SMILES
< 0.1 µM | CC[C@H](C(N)=O)c1ccc(N[C@@H](C)c2nc(Cl)c(Cl)s2)cc1 (single isomer, unassigned) [Compound 302]
0.5 to 1 µM | O=C1NC(CO)CCc2ccc(NS(=O)(=O)c3cccc(Cl)c3Cl)cc21 (single isomer, unassigned) [Compound 304B]
< 0.1 µM | O=C1NC(CO)CCc2ccc(NS(=O)(=O)c3cccc(Cl)c3Cl)cc21 (single isomer, unassigned) [Compound 304]
> 1 µM | Cc1c2ccc(NC(C)c3nc(Cl)c(Cl)s3)cc2nn1CC(N)=O (single isomer, unassigned) [Compound 312B]
< 0.1 µM | Cc1c2ccc(NC(C)c3nc(Cl)c(Cl)s3)cc2nn1CC(N)=O (single isomer, unassigned) [Compound 312]
> 1 µM | CC(Nc1ccc2c(c1)C(=O)N(CC(N)=O)C2(C)C)c1nc(Cl)c(Cl)s1 (single isomer, unassigned) [Compound 320A]
< 0.1 µM | CC(Nc1ccc2c(c1)C(=O)N(CC(N)=O)C2(C)C)c1nc(Cl)c(Cl)s1 (single isomer, unassigned) [Compound 320]
> 1 µM | CC(Nc1cc(F)c2ncn(CC(N)=O)c(=O)c2c1)c1nc(Cl)c(Cl)s1 (single isomer, unassigned) [Compound 323A]
< 0.1 µM | CC(Nc1cc(F)c2ncn(CC(N)=O)c(=O)c2c1)c1nc(Cl)c(Cl)s1 (single isomer, unassigned) [Compound 323]
< 0.1 µM | Cc1c2ccc(NC(C)c3snc(Cl)c3Cl)cc2nn1CC(N)=O (single isomer, unassigned) [Compound 341A]
> 1 µM | Cc1c2ccc(NC(C)c3snc(Cl)c3Cl)cc2nn1CC(N)=O (single isomer, unassigned) [Compound 341B]
> 1 µM | Cc1c2ccc(NC(C)c3sc(Cl)nc3Cl)cc2nn1CC(N)=O (single isomer, unassigned) [Compound 347A]
< 0.1 µM | Cc1c2ccc(NC(C)c3sc(Cl)nc3Cl)cc2nn1CC(N)=O (single isomer, unassigned) [Compound 347]
< 0.1 µM | CC(Nc1ccc2c(C(F)F)n(CC(N)=O)nc2c1)c1nc(Cl)c(Cl)s1 (single isomer, unassigned) [Compound 355A]
> 1 µM | CC(Nc1ccc2c(C(F)F)n(CC(N)=O)nc2c1)c1nc(Cl)c(Cl)s1 (single isomer, unassigned) [Compound 355B]
< 0.1 µM | Cc1nn(CC(N)=O)c(=O)c2cc(NC(C)c3nc(Cl)c(Cl)s3)ccc12 (single isomer, unassigned) [Compound 357]
> 1 µM | Cc1nn(CC(N)=O)c(=O)c2cc(NC(C)c3nc(Cl)c(Cl)s3)ccc12 (single isomer, unassigned) [Compound 358]
< 0.1 µM | Cc1nc(C(C)Nc2ccc3c(C)n(CC(N)=O)nc3c2)sc1Cl (single isomer, unassigned) [Compound 362]
> 1 µM | Cc1nc(C(C)Nc2ccc3c(C)n(CC(N)=O)nc3c2)sc1Cl (single isomer, unassigned) [Compound 363]
< 0.1 µM | CC(Nc1ccc2c(C(F)(F)F)n(CC(N)=O)nc2c1)c1nc(Cl)c(Cl)s1 (single isomer, unassigned) [Compound 367]
> 1 µM | CC(Nc1ccc2c(C(F)(F)F)n(CC(N)=O)nc2c1)c1nc(Cl)c(Cl)s1 (single isomer, unassigned) [Compound 368]
< 0.1 µM | [2H]C(C)(Nc1ccc2c(C)n(CC(N)=O)nc2c1)c1nc(Cl)c(Cl)s1 (single isomer, unassigned) [Compound 377]
> 1 µM | [2H]C(C)(Nc1ccc2c(C)n(CC(N)=O)nc2c1)c1nc(Cl)c(Cl)s1 (single isomer, unassigned) [Compound 378]
